According to patent US20240252519A1, “METHODS FOR THE TREATMENT OF POST-TRAUMATIC STRESS DISORDER AND TRAUMATIC BRAIN INJURY WITH CANNABINOIDS” (ANANDA SCIENTIFIC, INC., priority 2021, published 2024):

Tests used:
[1] = Chemical characteristics of composition A′, concentrated and diluted forms; type: physicochemical
Experimental: Several tests were conducted to determine the chemical characteristics of composition A′, both in concentrated and diluted forms. […] All liquid nanodomain droplets range in size from 5 to 20 nm. The pH of both the concentrate and diluted formulations is between 6.0 and 7.5.

[2] = rats, cited from earlier work
CB2 receptors = CB2 receptors (Homo sapiens, UniProt P34972); details: cited from earlier work
CB2 receptors, sequence (P34972 whole entry): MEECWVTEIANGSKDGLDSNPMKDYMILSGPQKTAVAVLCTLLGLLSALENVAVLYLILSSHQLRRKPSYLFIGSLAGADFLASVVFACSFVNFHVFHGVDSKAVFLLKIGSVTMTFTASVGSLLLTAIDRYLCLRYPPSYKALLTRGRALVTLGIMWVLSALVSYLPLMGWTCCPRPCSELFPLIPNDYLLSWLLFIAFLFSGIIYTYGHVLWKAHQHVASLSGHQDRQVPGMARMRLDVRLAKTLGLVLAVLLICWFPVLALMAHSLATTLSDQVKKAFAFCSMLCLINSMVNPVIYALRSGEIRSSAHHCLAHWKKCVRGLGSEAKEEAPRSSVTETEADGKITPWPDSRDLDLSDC

[3] = doses ranging from 10 mg to 6000 mg, single and multiple doses; cited from earlier work

C=C(C)[C@@H]1CCC(C)=C[C@H]1c1c(O)cc(CCCCC)cc1O [CBD, 2-(1R,6R)-3-methyl-6-prop-1-en-2-ylcyclohex-2-en-1-yl-5-pentylbenzene-1,3-diol]
logP [1]: ~6
T1/2 ([2]; 120 mg/kg dose, oral): 4 to 5 h
Bioavailability of CBD delivered orally ([2]; single 10 mg/kg): 2.8%
Affinity for CB2 receptors (CB2 receptors): low affinity
Safety [3]: safe
